| Compound | melting point [°C] |
| --- | --- |
| COc1ccc(C=C2C(=O)NC(=N)N2C)cc1OC | 243 to 245 |
| O=C(O)/C(=C/c1ccccc1F)c1ccccc1 | 169 |
| O=c1ccc2ccc(O)c(O)c2o1 | 262 |
| CCO[P@](=O)(c1ccc(OC)cc1)N1Cc2ccccc2C[C@@H]1C(=O)NO | 167 |
| Nc1ccc(C(=O)O)cc1N | 215 |
| CNCc1ccc(-c2noc(C)n2)cc1 | 51 to 53 |
| O=C(O)c1ccc(CN2CCCC2)cc1 | 184 to 185 |
| Nc1ccncc1C(F)(F)F | 100 |
| COC1CCC(C2C(=O)NC(=O)NC2=O)CC1 (centres undefined) | 215 |
| Cc1cc(C)n2nc(N)c(/N=N/c3ccncc3)c2n1 | 228 |
| CC12CCC3C(CCC4=CC(=O)C=CC43C)C1CCC(=O)O2 (centres undefined) | 218 |
| S=C=Nc1ccc2nsnc2c1 | 96 to 97 |
| O=C(C1=NOC2C(=O)N(c3ccc(Br)cc3)C(=O)C12)c1ccc(Cl)cc1 (centres undefined) | 184 |
| Cn1ccc(=O)[nH]c1=O | 237 |
| COC(=O)c1ccc(S(=O)(=O)Cl)n1C | 79 to 81 |
| CCCCCCOC(=O)CCCCC | -55 |
| CCOC(=O)c1ccc(N/C=C2\C(=O)C3(C)CCC2C3(C)C)cc1 (centres undefined) | 105 |
| CC(C)(C)c1csc(N)n1 | 101 |
| COC(=O)c1cc2c(=O)oc3ccccc3c2nc1C | 215 |
| CCCCCCCCCCOC(=O)CCCCCCCCC | 9.7 |
| CN(C)CCN1C(=O)c2ccccc2N(C)c2ccccc21 | 116 |
| Oc1ccc(Br)cc1C=NCCN=Cc1cc(Br)ccc1O | 191 to 196 |
| Oc1ccc(I)cn1 | 190 |
| Cc1ccc(O)cc1 | 35.5 |
| O=Cc1ccc(-n2cccn2)cc1 | 82 to 83 |
| Clc1c(Cl)c(Cl)c2c(oc3ccccc32)c1Cl | 169 |

| Compound | melting point [°C] |
| --- | --- |
| CCCCCCCCCCCCCCCCCCCCCCCCCCCCCCO | 88 |
| O=C(COc1ccc(Cl)cc1)Nc1nc2ccccc2s1 | 139 |
| Cc1c(Cl)c(Cl)c(Cl)c(Cl)c1Cl | 225 |
| O=S1(=O)OC(Cl)c2ccccc21 (centres undefined) | 110 to 116 |
| O=C(CBr)c1cc(-c2ccccc2)no1 | 109 to 112 |
| CCOC(=O)c1cc2cc([N+](=O)[O-])ccc2[nH]1 | 220 to 225 |
| CC(=O)c1cc(F)cc(F)c1 | 39 |
| O=C1c2ccccc2S(=O)(=O)N1Cl | 148 to 151 |
| CCC1CN2CCC1CC2C(O)c1ccnc2ccc(OCCC(C)C)cc12 (centres undefined) | 152 |
| NNC(=O)C(=O)NC1CCCCC1 | 238 |
| CCCCCCCCCCCCC#N | 9.7 |
| O=C(O)C=CC(=O)Nc1ccc(Cl)cc1 | 200 to 203 |
| c1ccc(C2=NCCN2)cc1 | 96.5 |
| CCCc1ssc(=S)c1C | 49 |
| CCCCCF | -120 |
| CCSCC(=O)O | -8.5 |
| CC(C)n1c(C(F)(F)F)nc2cc(C(=O)O)ccc21 | 172 to 176 |
| O=C(O)c1ccsc1Br | 174 to 175 |
| N#CCSc1ccc(Cl)cc1 | 80 |
| OCc1ccccc1Cc1ccccc1 | 37 to 41 |
| OCc1cc(C(O)CNCCCCCCOCCCCc2ccccc2)ccc1O (centres undefined) | 75.8 |
| Cc1cc(N)c([N+](=O)[O-])cc1C | 141 |
| CC(C)=CCC1C(=O)N(c2ccccc2)N(c2ccccc2)C1=O | 156 |
| CC1C(=O)C23C(O)CC4C(C)(C)CCCC45COC(CC1C2O)C53 (centres undefined) | 218 to 221 |
| CNC(c1cccc(C(F)(F)F)c1)C(NC)c1cccc(C(F)(F)F)c1 (centres undefined) | 113 to 115 |
| CC=CCCCCC | -80 |

| Compound | melting point [°C] |
| --- | --- |
| CC(C)(C)OC(=O)N[C@@H](CO)c1ccccc1 | 136 to 139 |
| CC(=O)Oc1ccccc1C(=O)Cl | 49 |
| CCOC(=O)C(C(C)=O)C(=O)c1ccc(C(=O)C(C(C)=O)C(=O)OCC)cc1 (centres undefined) | 99 |
| CCCCCCCCCCCCCCCC#N | 31 |
| N#CCc1cc(Cl)ccc1[N+](=O)[O-] | 87 |
| CC(C)(O)CCl | -20 |
| CCN(CC)c1cc(Cl)c2nonc2c1[N+](=O)[O-] | 132 to 135 |
| CC(=O)CCc1cc2c(cc1[N+](=O)[O-])CCC(C)N2 (centres undefined) | 95 |
| NC(=O)C(F)(F)C(F)F | 57 to 59 |
| CCOC(=O)CCC(C)C1CCC2C3C(=O)C(Br)C4CC(OC(C)=O)CCC4(C)C3CC(OC(C)=O)C12C (centres undefined) | 132 to 134 |
| Nc1c(Cl)c(Cl)nc(Cl)c1Cl | 212 to 215 |
| COc1ccc2c(c1OC)C(=O)OC2C1c2cc3c(cc2CCN1C)OCO3 (centres undefined) | 132 |
| Cc1nn(-c2ccccc2)c(C)c1C#N | 85 to 86 |
| Nc1ncc(Cl)cc1[N+](=O)[O-] | 193 |
| CCC=C(c1ccccc1)c1ccccc1 | -1 |
| CCC(=O)c1ccc(F)c(C(F)(F)F)c1 | 32 |
| CC(O)C(N)CO (centres undefined) | 54 to 57 |
| CCOC(=O)c1sc2sc(C(=O)OCC)c(NC(=O)c3ccccc3)c2c1NC(=O)c1ccccc1 | 286 |
| CC12CCC3C(CCC4CCCCC43C)C1CCC2=O (centres undefined) | 121 |
| C/C(=C(/C#N)c1nc2ccccc2s1)c1cc2ccccc2oc1=O | 155 |
| N#Cc1c(-c2ccc(Cl)cc2)n[nH]c1N | 216 to 217 |
| Cc1cc(C2(c3ccc(O)c(C)c3)CCCCC2)ccc1O | 184 to 185 |
| O=C(C1=NOC2C(=O)N(c3ccccc3Cl)C(=O)C12)c1cccs1 (centres undefined) | 180 |
| Cc1ccc(-c2csc(/C(C#N)=N\Nc3ccc(Cl)cc3Cl)n2)cc1 | 211 |
| O=C(O)CC(c1ccccc1)c1ccccc1 | 150 to 155 |
| CC(=O)Nc1ccc(C(F)(F)F)cc1Br | 144 to 146 |

| Compound | melting point [°C] |
| --- | --- |
| Nc1nc(=O)[nH]cc1Br | 240 to 243 |
| CC(C)N1CSc2nnc(-c3ccc([N+](=O)[O-])cc3)n2C1 | 260 |
| c1ccc(N=Nc2ccc(N=Nc3ccc(/N=N/c4ccc(N=Nc5ccccc5)cc4)cc3)cc2)cc1 | 275 |
| O=C(Oc1c(F)c(F)c(F)c(F)c1F)c1ccnc(N2CCSCC2)c1 | 99 to 100 |
| Nc1nc(-c2ccccc2)cs1 | 150 |
| C[Si]1(C)O[Si](C)(C)O[Si](C)(C)O[Si](C)(C)O[Si](C)(C)O[Si](C)(C)O[Si](C)(C)O1 | -26 |
| O=C1c2ccc([N+](=O)[O-])cc2C(=O)N1CCCCCCBr | 83 to 85 |
| COc1ccccc1-c1nnc2n1NC(c1ccccc1)S2 (centres undefined) | 208 |
| C=Cc1ccccc1[N+](=O)[O-] | 13 |
| CNC(=O)COC(=O)c1ccccc1 | 112 |
| Cc1onc(-c2ccccc2Cl)c1C(=O)O | 190 |
| Sc1nc2cc(Cl)c(Cl)cc2[nH]1 | 300 |
| Cc1ccc(Oc2ccc(C)cc2)cc1 | 51 |
| CCN1CCN(C(=O)N[C@@H](C(=O)O)c2ccc(O)cc2)C(=O)C1=O | 205 |
| CC12CC3CC(C1)CC(C)(C3)C2 | -30 |
| FC(Cl)(Cl)CCl | -140 |
| CC(C)(O)C#Cc1ccccn1 | 83 |
| O=C(O)Cc1cccc(Oc2ccccc2)c1 | 89 |
| CC(C)Cn1cnc2c(N)nc3ccccc3c21 | 293 |
| COC1=CC(=O)OC(C=Cc2ccccc2)C1 (centres undefined) | 106 |
| Nc1ccc(S(=O)(=O)F)cc1 | 68.5 |
| CC(C)(C)OC(=O)N[C@@H](Cc1ccc(Br)cc1)C(=O)O | 118 |
| O=C(O)C(Cc1cc(I)c(O)c(I)c1)c1ccccc1 (centres undefined) | 164 |
| CC(=O)c1cccc(C(C)=O)n1 | 80 |
| Cc1ccc(C)c(C)n1 | 37 |
| CCOC(=O)C1=NN(c2ccc([N+](=O)[O-])cc2)C2(C)CC3(c4ccccc4)N(c4ccc([N+](=O)[O-])cc4)N=C(C(=O)OCC)N3c3ccccc3N12 (centres undefined) | 237 to 239 |

| Compound | melting point [°C] |
| --- | --- |
| N#Cc1cccc2c1-c1ccccc1C2 | 77 to 79 |
| COc1ccc(C2(C#N)CCCCC2)cc1 | 43 |
| N#Cc1c(N2CCCC2)cc(Cl)nc1N1CCCC1 | 132 to 140 |
| O=NN(c1ccccc1)c1ccccc1 | 66.5 |
| Nc1c(F)cc(Br)cc1F | 67 to 68 |
| COc1ccc(C(C=C(SC)SC)=C(C#N)C#N)cc1 | 149 to 152 |
| CCCCCCCCCCCCN1CCCCCC1=O | -7 |
| O=[N+]([O-])c1ccc2ncsc2c1 | 175 |
| O=C(O)[C@@H]1Cc2ccccc2CN1 | 300 |
| OCC(I)CC(F)(F)C(F)(F)C(F)(F)C(F)(F)C(F)(F)C(F)(F)F (centres undefined) | 45 to 46 |
| CCOC(=O)CC(O)(CC(=O)OCC)C(=O)OCC | -46 |
| O=C(c1cccc2ccccc12)C(O)c1ccccc1 (centres undefined) | 105 to 106 |
| FC(F)(F)c1ccc(-n2cc[nH]c2=S)cc1 | 194 to 196 |
| O=C(Nc1ccc(Cl)cc1)Nc1ccc(Cl)cc1 | 270 |
| Nc1oncc1-c1ccccn1 | 133 to 136 |
| CCOC(=O)c1sc(SC)c(S(=O)(=O)C(C)C)c1N | 143 to 146 |
| COC(=O)c1cncc(C)c1 | 44 |
| c1ccc(N2CCOCC2)cc1 | 51 to 54 |
| CN1C(CCl)Nc2cc(Cl)c(S(N)(=O)=O)cc2S1(=O)=O (centres undefined) | 225 |
| O=c1c(Br)c(Br)cnn1-c1ccccc1 | 143 to 144 |
| CCCCCCCCCCCCCCCCOCCOCCOCCOCCOCCOCCOCCOCCOCCOCCOCCOCCOCCOCCOCCOCCOCCOCCOCCOCCO | 35.4 to 39.6 |
| Cc1cnc(C(=O)O)c[n+]1[O-] | 178 |
| CCOC(=O)Cc1csc(N)n1 | 91 to 95 |
| C=C1C(=O)C23C(OC)CC4C5(C)CCCC4(COC5)C2C(OC(C)=O)CC1C3OC(C)=O (centres undefined) | 160 |
| N#CC(C#N)=Cc1ccc(O)cc1 | 189 |
